The structures appear in SMILES notation.

One data set relates to Taxol®-induced mechanical allodynia. Nature of the data set: Taxol Induced Peripheral Neuropathy Model (pilot), Von Frey testing. It is filed as in vivo, Sprague-Dawley rats. The note with it: Taxol 2 mg/kg i.p. days 1, 3, 5, 7 + HPMC vehicle; day 12 (baseline 16.42±2.14 g). As for the experimental part: In addition, the compound's effects on spontaneous locomotor activity was measured.
The animals were housed in polycarbonate plastic cages, 2 animals per cage, at a temperature of 18-26° C., 30-70% humidity, 12-hour light/dark cycle, with food and water available ad libityum.
On days 1, 3, 5, and 7, the rats received an ip (intraperitoneal) injection of Taxol® (2 mg/kg).
Two behavioral tests were performed: measurement of tactile sensitivity and spontaneous locomotor activity. At baseline and on Days 5 and 12 post-Taxol® injection, the animals underwent Von Frey testing for mechanical allodynia (according to the procedure as described in Chaplan, S R, Bach, F W, Pogrel, J W, Chung, J M, Yaksh, T L. Quantitative assessment of tactile allodynia in the rat paw. J Neurosci Meth, 53:55-63, 1994). Tactile sensitivity (i.e. mechanical allodynia) was measured using calibrated filaments touched to the plantar surface of the affected limb to determine paw withdrawal threshold. Briefly, the rats were placed in a Plexiglas cage with a wire mesh bottom and allowed to acclimate for 10 minutes. Once the animals settled, the plantar surface of the right hind paw was touched with a 2.0 g von Frey filament. […] Data were analyzed using two-way ANOVA, one-way ANOVA and Dunnett's test, with statistical significance at p<0.05.
As for `CC(=O)O[C@H]1C(=O)[C@@]2(C)[C@H]([C@H](OC(=O)c3ccccc3)[C@]3(O)C[C@H](OC(=O)[C@H](O)[C@@H](NC(=O)c4ccccc4)c4ccccc4)C(C)=C1C3(C)C)[C@]1(OC(C)=O)CO[C@@H]1C[C@@H]2O` [Taxol®, paclitaxel, reference compound], the “paw withdrawal threshold (mechanical allodynia)” value is 12.11 ± 4.92 g.

Test system in a further data set: not given
Test: not given
Settings: not given
A word on the melting point: it is the temperature, or range, at which the solid turns liquid. As for `CN(CC1COc2ccccc2O1)S(N)(=O)=O` (stereo not drawn), the melting point fell in the range of 97 to 98 °C.
`NS(=O)(=O)NCCC1COc2ccccc2O1` (stereo not drawn) gave a melting point of 101 to 103 °C.
The same measure, in the same setting: the value for `NS(=O)(=O)NCC1CCc2ccccc2O1` (stereo not drawn) was 100 to 101 °C; that for `NS(=O)(=O)NC[C@H]1COc2cc(Cl)c(Cl)cc2O1` was 119 to 121 °C; that for `CN(C)S(=O)(=O)NCC1COc2ccccc2O1` (stereo not drawn) was 76 to 78 °C.

These data come from US8716231B2, “Use of benzo-fused heterocycle sulfamide derivatives for the treatment of pain” (Janssen Pharmaceutica NV, priority 2005, dated 2014).
